The values below come from patent US5008401A, “Cyanine compounds” (Asahi Chemical Co., Ltd., priority 1990, dated 1991).

Each structure is given as a SMILES string.

Data set [1] in a line: Test for solubility in solvent. As to conditions: for Solubility: methanol, room temperature. Format: physicochemical. The procedure: Each of cyanine dyes as shown below in Table 2 was dissolved in methanol and the solubility was determined at room temperature with the results indicated below in Table 2.
A short description of data set [2]: Absorption maximum (λmax) and molar absorptivity (ε) in solution. Format: physicochemical.

Turning to `CCOc1ccc2c(c1)C(C)(C)C(=CC=CC=CC=CC1=[N+](C)c3ccc(OCC)cc3C1(C)C)N2C` [Compound A, reference compound], in data set [1], the “solubility in solvents (in words)” value is recorded as “does not exhibit good solubility in solvents” and the Solubility result is given as “up to 10 g/1”.

In the case of `CCOc1cc(OCC)c2c(c1)C(C)(C)C(=CC=CC=CC1=[N+](CC)c3c(OCC)cc(OCC)cc3C1(C)C)N2CC` [Preparation Example 2], in data set [2] (dichloromethane), the ε is recorded as 1.72×10^5 cm^- and the λmax came out at 698 nm.

In data set [2] (diacetone alcohol), `CCc1cc(OC)cc2c1N(CC)C(=CC=CC=CC1=[N+](CC)c3c(CC)cc(OC)cc3C1(C)C)C2(C)C` [Preparation Example 9] returned a ε of 182000 cm⁻¹ and a λmax of 681 nm.

Regarding `COc1cc(C(C)C)c2c(c1)C(C)(C)C(=CC=CC=CC1=[N+](C)c3c(C(C)C)cc(OC)cc3C1(C)C)N2C` [Preparation Example 10], in data set [2] (diacetone alcohol), the ε was 162000 cm⁻¹ and the λmax is 681 nm.

Turning to `CCN1C(=CC=CC=CC2=[N+](CC)c3c(OC)cc(OC)cc3C2(C)C)C(C)(C)c2cc(OC)cc(OC)c21` [Preparation Example 1], the Solubility in data set [1] came to 30 g/1.

In the case of `CCOc1ccc2c(c1)C(C)(C)C(=CC=CC=CC1=[N+](C)c3ccc(OCC)cc3C1(C)C)N2C` [Compound B, reference compound], in data set [1], the “solubility in solvents (in words)” value is “not satisfactory in solubility in solvents” and the Solubility result is “up to 10 g/1”.

`CCCN1C(=CC=CC=CC2=[N+](CCC)c3cc(C)c(OC)cc3C2(C)C)C(C)(C)c2cc(OC)c(C)cc21` [Preparation Example 6]: in data set [1], the Solubility entry was “at least 30 g/1”. In data set [2] (diacetone alcohol), the ε was determined as 174000 cm⁻¹ and the λmax came out at 683 nm.

Take `COCN1C(=CC=CC=CC2=[N+](COC)c3cc(OC)c(OC)cc3C2(C)C)C(C)(C)c2cc(OC)c(OC)cc21` [Preparation Example 3]: the Solubility entry in data set [1] was “at least 30 g/1”. In data set [2] (diacetone alcohol), this compound yielded a ε of 160000 cm⁻¹ and a λmax of 702 nm.

With `CCCOc1cc(C)c2c(c1)C(C)(C)C(=CC=CC=CC1=[N+](CC)c3c(C)cc(OCCC)cc3C1(C)C)N2CC` [Preparation Example 8], the λmax in data set [2] (diacetone alcohol) turned out to be 683 nm.

As to `COCCN1C(=CC=CC=CC2=[N+](CCOC)c3c(C)cc(OC)cc3C2(C)C)C(C)(C)c2cc(OC)cc(C)c21` [Preparation Example 5], in data set [2] (diacetone alcohol), the ε came out at 185000 cm⁻¹ and the λmax turned out to be 679 nm.

Regarding `CCOc1cc(C)c2c(c1)C(C)(C)C(=CC=CC=CC1=[N+](CC)c3c(C)cc(OCC)cc3C1(C)C)N2CC` [Preparation Example 7], in data set [2] (dichloroethane), the ε is 1.75×10^5 cm^- and the λmax turned out to be 681 nm.

Consider `CCCCN1C(=CC=CC=CC2=[N+](CCCC)c3cc(OC)c(OC)cc3C2(C)C)C(C)(C)c2cc(OC)c(OC)cc21` [Preparation Example 11], for which the Solubility entry in data set [1] was “at least 30 g/1”. In data set [2] (diacetone alcohol), this compound displayed a ε of 162000 cm⁻¹ and a λmax of 703 nm.

In data set [2] (diacetone alcohol), `COc1cc(OC)c2c(c1)C(C)(C)C(=CC=CC=CC1=[N+](CCOC(C)=O)c3c(OC)cc(OC)cc3C1(C)C)N2CCOC(C)=O` [Preparation Example 13] yielded a ε of 175000 cm⁻¹ and a λmax of 693 nm.

In data set [2] (dichloromethane), `CCCCN1C(=CC=CC=CC2=[N+](CCCC)c3cc(OC)c(OC)cc3C2(C)C)C(C)(C)c2cc(OC)c(OC)cc21` [Preparation Example 12] showed a ε of 161000 cm⁻¹ and a λmax of 699 nm.

Take `COc1cc(C)c2c(c1)C(C)(C)C(=CC=CC=CC1=[N+](CCO)c3c(C)cc(OC)cc3C1(C)C)N2CCO` [Preparation Example 4]: in data set [2] (diacetone alcohol), the ε was 184000 cm⁻¹ and the λmax is reported as 679 nm.

For the compound `COCCN1C(=CC=CC=CC2=[N+](CCOC)c3c(OC)cc(OC)cc3C2(C)C)C(C)(C)c2cc(OC)cc(OC)c21` [Preparation Example 14], in data set [1], the Solubility entry is “at least 30 g/1”. In data set [2] (diacetone alcohol), this compound showed a ε of 180000 cm⁻¹ and a λmax of 695 nm.
